Experimental findings from ChEMBL document CHEMBL3758137 (Eur J Med Chem, 2016) are described below.

Data set [1] has as its target Hepatocyte growth factor receptor (Homo sapiens, UniProt P08581). Description: Inhibition of recombinant c-Met (unknown origin) using poly (Glu,Tyr)4:1 as substrate after 60 mins by ELISA.
The nature of data set [2]: Antiproliferative activity against human EBC1 cells after 72 hrs by SRB assay. To be noted: EBC-1, 72 h. (The SRB assay estimates cell density from bound dye.)
Data set [3] in a line: Apparent permeability from apical to basolateral side in human Caco2 cells after 35 to 95 mins by LC-MS/MS analysis. The following applies: Caco-2. Format: ADME, cell-based.
A short description of data set [4]: Intrinsic clearance in mouse liver microsomes at 0.1 uM after 7 to 60 mins by LC-MS/MS analysis. Format: ADME.
For data set [5], the system named is Liver microsome. In words: Intrinsic clearance in rat liver microsomes at 0.1 uM after 7 to 60 mins by LC-MS/MS analysis. Format: ADME. For orientation: Liver microsomes are vesicles of endoplasmic reticulum, rich in cytochrome P450 enzymes.
Data set [6] is described as follows: Solubility of compound in HBSS/HEPES buffer at pH 7.4 by nephelometric analysis in presence of 0.1% BSA. Format: physicochemical. To be noted: HBSS/HEPES buffer with 0.1% BSA.
A short description of data set [7]: Solubility of compound in TRIS buffer by nephelometric analysis in presence of 0.1% BSA. Format: physicochemical. The following applies: TRIS buffer with 0.1% BSA.
The test system of data set [8] is Liver microsome. Description: Intrinsic clearance in human liver microsomes at 0.1 uM after 7 to 60 mins by LC-MS/MS analysis. Format: ADME.
A short description of data set [9]: Apparent permeability from basolateral to apical side in human Caco2 cells after 35 to 95 mins by LC-MS/MS analysis. The format is ADME, cell-based. The following applies: Caco-2. (In general: Caco-2 monolayers are a common model of the intestinal barrier.)
Data set [10] in a line: Solubility of compound in HBSS/HEPES buffer at pH 6.8 by nephelometric analysis in presence of 0.1% BSA. The format is physicochemical. The following applies: HBSS/HEPES buffer with 0.1% BSA.
A short description of data set [11]: Antitumor activity against human EBC1 cells xenografted in nude mouse assessed as tumor growth inhibition at 50 mg/kg, po qd administered for 21 days relative to control. Format: functional. The following applies: EBC-1, po, 504 h, read-out: TGI.

Bounds are passed on as bounds.

Chain of Hepatocyte growth factor receptor (P08581 whole entry): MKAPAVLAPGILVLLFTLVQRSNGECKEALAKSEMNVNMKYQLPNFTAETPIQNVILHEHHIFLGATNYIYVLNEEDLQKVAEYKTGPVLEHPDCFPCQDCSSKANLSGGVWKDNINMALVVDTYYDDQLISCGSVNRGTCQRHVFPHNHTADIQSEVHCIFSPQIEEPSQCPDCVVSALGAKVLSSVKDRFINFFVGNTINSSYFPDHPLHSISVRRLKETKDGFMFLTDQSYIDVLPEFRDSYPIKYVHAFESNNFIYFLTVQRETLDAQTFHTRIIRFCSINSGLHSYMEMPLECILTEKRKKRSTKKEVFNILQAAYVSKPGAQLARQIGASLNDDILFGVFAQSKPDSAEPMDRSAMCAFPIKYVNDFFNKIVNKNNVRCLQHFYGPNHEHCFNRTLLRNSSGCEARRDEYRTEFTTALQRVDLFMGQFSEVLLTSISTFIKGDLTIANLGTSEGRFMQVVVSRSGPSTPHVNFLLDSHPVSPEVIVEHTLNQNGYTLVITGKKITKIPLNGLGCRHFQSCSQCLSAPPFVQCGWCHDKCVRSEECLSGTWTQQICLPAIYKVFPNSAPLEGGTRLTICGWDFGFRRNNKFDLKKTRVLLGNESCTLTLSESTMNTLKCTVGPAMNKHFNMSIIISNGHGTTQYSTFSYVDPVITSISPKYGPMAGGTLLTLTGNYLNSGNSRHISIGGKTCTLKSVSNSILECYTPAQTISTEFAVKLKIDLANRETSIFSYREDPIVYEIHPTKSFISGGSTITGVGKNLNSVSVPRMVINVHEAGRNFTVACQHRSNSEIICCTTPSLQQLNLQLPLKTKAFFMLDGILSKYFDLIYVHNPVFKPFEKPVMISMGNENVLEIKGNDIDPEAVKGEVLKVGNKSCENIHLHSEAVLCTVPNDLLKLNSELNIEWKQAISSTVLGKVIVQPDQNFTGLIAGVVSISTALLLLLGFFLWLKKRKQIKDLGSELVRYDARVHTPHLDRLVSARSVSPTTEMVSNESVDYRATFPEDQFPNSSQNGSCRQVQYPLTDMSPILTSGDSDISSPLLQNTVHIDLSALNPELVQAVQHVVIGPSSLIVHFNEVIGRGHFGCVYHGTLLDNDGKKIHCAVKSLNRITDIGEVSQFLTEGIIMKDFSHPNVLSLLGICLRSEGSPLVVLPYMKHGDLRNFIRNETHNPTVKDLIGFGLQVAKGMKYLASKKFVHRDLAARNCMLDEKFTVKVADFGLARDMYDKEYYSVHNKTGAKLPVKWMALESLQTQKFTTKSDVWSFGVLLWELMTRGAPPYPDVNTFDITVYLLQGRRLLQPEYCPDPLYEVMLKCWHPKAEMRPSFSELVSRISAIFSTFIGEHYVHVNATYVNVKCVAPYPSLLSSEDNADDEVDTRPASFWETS

Consider `Cn1cc(-c2ccc(=O)n(Cc3cccc(Nc4nc5ccccc5[nH]4)c3)n2)cn1`, for which the IC50 (commonly the midpoint of a concentration-inhibition curve) is more than 100 nM in data set [1] and more than 200 nM in [2].

Regarding `Cn1cc(-c2ccc(Nc3cccc(Cn4nc(-c5cnn(C)c5)ccc4=O)c3)nc2)cn1`, the results for the concentration for half-maximal inhibition (IC50) in data set [1] and in data set [2] were more than 100 nM and more than 200 nM, respectively. `Cn1cc(-c2ccc(=O)n(Cc3cccc(Nc4ncn(C)n4)c3)n2)cn1`: the values for the IC50 in data set [1] and in data set [2] were more than 100 nM and more than 200 nM, respectively. `Cn1cc(-c2ccc(=O)n(Cc3cccc(Nc4ncccn4)c3)n2)cn1`: the IC50 in [1] is more than 100 nM; in data set [2] it was more than 200 nM.

In [2], `Cn1cc(-c2cnc(Nc3cccc(Cn4nc(-c5ccc(Cl)c(C(F)(F)F)c5)ccc4=O)c3)nc2)cn1` came in with a 50% inhibitory concentration (IC50) of 65 nM.

`CNC(=O)c1ccc(-c2ccc(=O)n(Cc3cccc(Nc4ncc(-c5cnn(C)c5)cn4)c3)n2)cc1F`: the Papp A→B (commonly how fast a substance crosses the layer from the apical side) in data set [3] turned out to be 1.7 ×10⁻⁶ cm/s. Also, the CLH amounted to 50 mL/min/g in data set [4], 64 mL/min/g in data set [5] and 28 mL/min/g in data set [8]. Besides, the solubility (kinetic) in data set [6], in data set [7] and in [10] was 2 µM throughout. The Papp B→A (in general, how fast a substance crosses the layer from the basolateral side) in data set [9] was found to be 17.4 ×10⁻⁶ cm/s. The IC50 in [2] came to 31.3 nM.

On to `CN1CCN(Cc2cnc(Nc3cccc(Cn4nc(-c5cnn(C)c5)ccc4=O)c3)nc2)CC1`, for which the IC50 in data set [1] was more than 100 nM; in [2] it was more than 200 nM. The compound `Cn1cc(-c2cnc(Nc3cccc(Cn4nc(-c5ccc(S(C)(=O)=O)cc5)ccc4=O)c3)nc2)cn1` had a half-inhibitory concentration (IC50) in data set [2] of 73.4 nM. Take `Cn1cc(-c2ccnc(Nc3cccc(Cn4nc(-c5cnn(C)c5)ccc4=O)c3)n2)cn1`: the IC50 in [1] was more than 100 nM; in data set [2], more than 200 nM. For `Cn1cc(-c2cnc(Nc3cccc(Cn4nc(-c5cccc(S(C)(=O)=O)c5)ccc4=O)c3)nc2)cn1`, the IC50 in data set [2] was more than 200 nM. As for `Cn1cc(-c2cnc(Nc3cccc(Cn4nc(-c5cnn(CCO)c5)ccc4=O)c3)nc2)cn1`, the concentration for half-maximal inhibition (IC50) in [2] came to 99.8 nM. With `Cn1cc(-c2cnc(Nc3cccc(Cn4nc(-c5ccncc5)ccc4=O)c3)nc2)cn1`, in data set [2], the 50% inhibitory concentration (IC50) is more than 200 nM. In data set [2], `CN(C)C(=O)c1ccc(-c2ccc(=O)n(Cc3cccc(Nc4ncc(-c5cnn(C)c5)cn4)c3)n2)cc1F` displayed a half-maximal inhibitory concentration (IC50) of 102 nM. For the compound `Cn1cc(-c2ccc(=O)n(Cc3cccc(Nc4ncc(-c5cccnc5)cn4)c3)n2)cn1`, the IC50 in [2] was more than 200 nM. In data set [2], `Cn1cc(-c2cnc(Nc3cccc(Cn4nc(-c5ccc(C(=O)O)c(F)c5)ccc4=O)c3)nc2)cn1` came in with an IC50 of more than 200 nM. Same read-out and setting: for `Cn1cc(-c2cnc(Nc3cccc(Cn4nc(-c5cccc(C#N)c5)ccc4=O)c3)nc2)cn1` the value was 108 nM; for `Cn1cc(-c2cnc(Nc3cccc(Cn4nc(-c5cccc(C(=O)O)c5)ccc4=O)c3)nc2)cn1`, more than 200 nM; for `Cn1cc(-c2ccc(=O)n(Cc3cccc(Nc4ncc(-c5cncs5)cn4)c3)n2)cn1`, more than 200 nM. Same read-out and setting: for `COCCOc1cnc(Nc2cccc(Cn3nc(-c4cnn(C)c4)ccc3=O)c2)nc1` the value was more than 200 nM; for `CC(C)n1cc(-c2cnc(Nc3cccc(Cn4nc(-c5cnn(C)c5)ccc4=O)c3)nc2)cn1`, 94.6 nM; for `CN1CCC(n2cc(-c3cnc(Nc4cccc(Cn5nc(-c6cnn(C)c6)ccc5=O)c4)nc3)cn2)CC1`, 65 nM. The same measure, in the same setting: for `Cn1cc(-c2ccc(=O)n(Cc3cccc(Nc4ncc(-c5cnn(CCO)c5)cn4)c3)n2)cn1` the value was 48.7 nM. In [2], `Cn1cc(-c2cnc(Nc3cccc(Cn4nc(-c5cccnc5)ccc4=O)c3)nc2)cn1` gave a concentration for half-maximal inhibition (IC50) of more than 200 nM. In the case of `C[C@@H](Oc1cc(-c2cnn(C3CCNCC3)c2)cnc1N)c1c(Cl)ccc(F)c1Cl` [CRIZOTINIB], the inhibition in vivo at 50 mg/kg in data set [11] was 108%. This compound also had an IC50 in [2] of 19 nM.
